{"source": "paper PMC8765781", "about": "“A platform of assays for the discovery of anti-Zika small-molecules with activity in a 3D-bioprinted outer-blood-retina model” (PLoS ONE, 2022)", "system": "wild-type ZIKV (Ugandan MR766 strain) in Vero cells", "assay": "ZIKV cytopathic effect (CPE) inhibition qHTS assay, CellTiter-Glo readout", "type": "cell-based, Zika virus", "settings": "for AC50: Zika virus, Vero", "key": {"[1]": {"settings": "read-out: Log AC50 (M) (converted)"}}, "note": "Read-outs that look alike come from different tables or passages of the source."}
{"smiles": "Cn1cc(-c2ccncc2)c(-c2ccc(OCc3ccc4ccccc4n3)cc2)n1", "note": "[NCGC00346630-05]", "values": [{"measurement": "Efficacy", "value": -23.654}, {"measurement": "AC50", "value": "2.59e-05", "unit": "M"}, {"measurement": "AC50", "setting": "[1]", "value": "2.59e-05", "unit": "M"}]}
{"smiles": "O=C(CCN1CCN(C(=O)OCc2cc(Cl)cc(Cl)c2)CC1)c1ccc2[nH]c(=O)oc2c1", "note": "[NCGC00346939-05]", "values": [{"measurement": "Efficacy", "value": -25.5}, {"measurement": "AC50", "value": "7.31e-05", "unit": "M"}, {"measurement": "AC50", "setting": "[1]", "value": "7.31e-05", "unit": "M"}]}
{"smiles": "OCCCNc1cc(-c2ccnc(Nc3cccc(Cl)c3)n2)ccn1", "note": "[NCGC00346940-02]", "values": [{"measurement": "CC-v2 (curve class classification of the dose response curve)", "value": -2.1}, {"measurement": "Efficacy", "value": -105.653}, {"measurement": "AC50", "value": "6.51e-05", "unit": "M"}, {"measurement": "AC50", "setting": "[1]", "value": "6.51e-05", "unit": "M"}]}
{"smiles": "c1ccc(CNc2nc(N3CCOc4ccccc43)nc3c2CCCC3)cc1", "note": "[NCGC00347065-03]", "values": [{"measurement": "Efficacy", "value": -32.702}, {"measurement": "AC50", "value": "5.17e-05", "unit": "M"}, {"measurement": "AC50", "setting": "[1]", "value": "5.17e-05", "unit": "M"}]}
{"smiles": "CC1=CC(=O)[C@@H](O)[C@@]2(C)C1C[C@H]1OC(=O)[C@H](O)[C@@]3(O)[C@@H](C)[C@@H](O)[C@H](O)C2[C@@]13C", "note": "(stereo partly drawn) [NCGC00347801-02]", "values": [{"measurement": "CC-v2 (curve class classification of the dose response curve)", "value": -1.2}, {"measurement": "Efficacy", "value": -51.479}, {"measurement": "AC50", "value": "1.43e-05", "unit": "M"}, {"measurement": "AC50", "setting": "[1]", "value": "1.43e-05", "unit": "M"}]}
{"smiles": "C=C(C)C(=O)O[C@H]1[C@@H]2[C@H](C)C(=O)O[C@@H]2C[C@@H](C)[C@@H]2C=CC(=O)[C@]21C", "note": "[NCGC00347858-02]", "values": [{"measurement": "CC-v2 (curve class classification of the dose response curve)", "value": -2.1}, {"measurement": "Efficacy", "value": -111.628}, {"measurement": "AC50", "value": "4.53e-05", "unit": "M"}, {"measurement": "AC50", "setting": "[1]", "value": "4.53e-05", "unit": "M"}]}
{"smiles": "Nc1c([S+](=O)([O-])c2ccccc2)c2nc3ccccc3nc2n1-c1ccc(F)cc1", "note": "[NCGC00351779-01]", "values": [{"measurement": "Efficacy", "value": -26.957}, {"measurement": "AC50", "value": "7.31e-05", "unit": "M"}, {"measurement": "AC50", "setting": "[1]", "value": "7.31e-05", "unit": "M"}]}
{"smiles": "CCCNc1ccc2ncc(-c3ccc4[nH]ncc4c3)n2n1", "note": "[NCGC00370724-05]", "values": [{"measurement": "CC-v2 (curve class classification of the dose response curve)", "value": -2.2}, {"measurement": "Efficacy", "value": -62.08}, {"measurement": "AC50", "value": "5.8e-05", "unit": "M"}, {"measurement": "AC50", "setting": "[1]", "value": "5.8e-05", "unit": "M"}]}
{"smiles": "Cc1cc(C)c2nc(-c3ccccn3)cc(C(=O)Nc3ccc([S+](=O)([O-])Nc4onc(C)c4C)cc3)c2c1", "note": "[NCGC00370745-03]", "values": [{"measurement": "Efficacy", "value": -23.798}, {"measurement": "AC50", "value": "3.26e-05", "unit": "M"}, {"measurement": "AC50", "setting": "[1]", "value": "3.26e-05", "unit": "M"}]}
{"smiles": "O=C(c1cn(Cc2cncn2Cc2ccc(Br)cc2)cc1-c1cccc2ccccc12)N1CCOCC1", "note": "[NCGC00370772-05]", "values": [{"measurement": "CC-v2 (curve class classification of the dose response curve)", "value": -2.2}, {"measurement": "Efficacy", "value": -38.989}, {"measurement": "AC50", "value": "3.66e-05", "unit": "M"}, {"measurement": "AC50", "setting": "[1]", "value": "3.66e-05", "unit": "M"}]}
{"smiles": "CCN(CC)C(=O)c1ccc(Nc2nc(OCC3CCCCC3)c3nc[nH]c3n2)cc1", "note": "[NCGC00370819-01]", "values": [{"measurement": "Efficacy", "value": -42.267}, {"measurement": "AC50", "value": "4.61e-05", "unit": "M"}, {"measurement": "AC50", "setting": "[1]", "value": "4.61e-05", "unit": "M"}]}
{"smiles": "Cc1nc[nH]c1C1CCN(c2nc3cccc4c3n2CCC4=O)CC1", "note": "[NCGC00370838-01]", "values": [{"measurement": "CC-v2 (curve class classification of the dose response curve)", "value": -3}, {"measurement": "Efficacy", "value": -41.62}, {"measurement": "AC50", "value": "1.84e-05", "unit": "M"}, {"measurement": "AC50", "setting": "[1]", "value": "1.84e-05", "unit": "M"}]}
{"smiles": "CCCCCOc1cc2c(cc1-c1cc(/C=C/C(=O)O)ccc1O)C(C)(C)CCC2(C)C", "note": "[NCGC00370868-01]", "values": [{"measurement": "AC50", "setting": "from Hill fit of the response curve, 50% of maximum activity response, 194 cherry-picked compounds, protocol name not given, read-out: AC50", "value": "1.84e-05", "unit": "M"}, {"measurement": "AC50", "setting": "potency in log units (Molar) from Hill fit of the response curve, 194 cherry-picked compounds, protocol name not given, read-out: Log AC50 (converted)", "value": "1.84e-05", "unit": "M"}, {"measurement": "Efficacy", "setting": "difference between neutral response and maximum compound response", "value": -36.339}]}
{"smiles": "C[S+](=O)([O-])NC[C@H]1CC[C@H](Nc2nc3c(s2)CCSc2ccccc2-3)CC1", "note": "[NCGC00370875-01]", "values": [{"measurement": "CC-v2 (curve class classification of the dose response curve)", "value": -3}, {"measurement": "Efficacy", "value": -44.692}, {"measurement": "AC50", "value": "7.31e-05", "unit": "M"}, {"measurement": "AC50", "setting": "[1]", "value": "7.31e-05", "unit": "M"}]}
{"smiles": "CC1(C)CC=C(c2cnc3ccccc3c2)c2cc(C(=O)Nc3ccc(C(=O)O)cc3)ccc21", "note": "[NCGC00370906-01]", "values": [{"measurement": "Efficacy", "value": -33.992}, {"measurement": "AC50", "value": "5.17e-05", "unit": "M"}, {"measurement": "AC50", "setting": "[1]", "value": "5.17e-05", "unit": "M"}]}
{"smiles": "CC(C)c1cccc2c(-c3ccccc3)cc(-c3ccc(-c4ccc(C(=O)O)cc4)[nH]3)nc12", "note": "[NCGC00370963-01]", "values": [{"measurement": "CC-v2 (curve class classification of the dose response curve)", "value": -3}, {"measurement": "Efficacy", "value": -43.883}, {"measurement": "AC50", "value": "2.91e-05", "unit": "M"}, {"measurement": "AC50", "setting": "[1]", "value": "2.91e-05", "unit": "M"}]}
{"smiles": "O=C1N(CC2CCCCN2)CCN1c1ccccc1", "note": "(stereo not drawn) [NCGC00370981-01]", "values": [{"measurement": "CC-v2 (curve class classification of the dose response curve)", "value": -3}, {"measurement": "Efficacy", "value": -38.034}, {"measurement": "AC50", "value": "2.91e-05", "unit": "M"}, {"measurement": "AC50", "setting": "[1]", "value": "2.91e-05", "unit": "M"}]}
{"smiles": "CN1CC2CN(c3ccc4oc5ccccc5c(=O)c4c3)CC2C1", "note": "(stereo not drawn) [NCGC00371020-01]", "values": [{"measurement": "Efficacy", "value": -29.929}, {"measurement": "AC50", "value": "3.17e-05", "unit": "M"}, {"measurement": "AC50", "setting": "[1]", "value": "3.17e-05", "unit": "M"}]}
{"smiles": "Cc1cc2sc(NC(=O)Cc3ccccc3)nc2cc1Cl", "note": "[NCGC00371143-05]", "values": [{"measurement": "Efficacy", "value": -24.072}, {"measurement": "AC50", "value": "5.8e-05", "unit": "M"}, {"measurement": "AC50", "setting": "[1]", "value": "5.8e-05", "unit": "M"}]}
